Results reported in ChEMBL document CHEMBL4431388, “Molecular docking studies and synthesis of novel bisbenzimidazole derivatives as inhibitors of α-glucosidase” (Bioorg Med Chem, 2016).

Columns and labels:
[1] = system: Saccharomyces cerevisiae; assay: Inhibition of baker's yeast alpha-glucosidase at 300 uM using p-nitrophenyl alpha-D-glucopyranoside as substrate preincubated for 15 mins followed by substrate addition measured for 20 mins by spectrophotometric analysis relative to control
[2] = Inhibition of baker's yeast alpha-glucosidase using p-nitrophenyl alpha-D-glucopyranoside as substrate preincubated for 15 mins followed by substrate addition measured for 20 mins by spectrophotometric analysis; parameters: species or system Saccharomyces cerevisiae

O=[N+]([O-])c1ccc2nc(-c3nc4ccc([N+](=O)[O-])cc4[nH]3)[nH]c2c1
inhibition [1]: 100% | IC50 [2]: 540 nM

Sc1nnc(Cn2c(-c3nc4ccccc4n3Cc3nnc(S)n3-c3ccccc3)nc3ccccc32)n1-c1ccccc1
inhibition [1]: 100% | IC50 [2]: 3010 nM

O=[N+]([O-])c1ccc2nc(-c3nc4ccc([N+](=O)[O-])cc4n3Cc3nnc(NCc4ccccc4)s3)n(Cc3nnc(NCc4ccccc4)s3)c2c1
inhibition [1]: 48.4%

O=C(Cn1c(-c2nc3ccc([N+](=O)[O-])cc3n2CC(=O)NNC(=S)NCc2ccccc2)nc2ccc([N+](=O)[O-])cc21)NNC(=S)NCc1ccccc1
inhibition [1]: 100% | IC50 [2]: 490 nM

c1ccc(Nc2nnc(Cn3c(-c4nc5ccccc5n4Cc4nnc(Nc5ccccc5)s4)nc4ccccc43)s2)cc1
inhibition [1]: 42.7%

CCOC(=O)Cn1c(-c2nc3ccc([N+](=O)[O-])cc3n2CC(=O)OCC)nc2ccc([N+](=O)[O-])cc21
inhibition [1]: 85.8% | IC50 [2]: 6690 nM

O=[N+]([O-])c1ccc2nc(-c3nc4ccc([N+](=O)[O-])cc4n3Cc3nnc(S)n3-c3ccccc3)n(Cc3nnc(S)n3-c3ccccc3)c2c1
inhibition [1]: 23.7%

O=C(Cn1c(-c2nc3ccc([N+](=O)[O-])cc3n2CC(=O)NNC(=S)Nc2ccccc2)nc2ccc([N+](=O)[O-])cc21)NNC(=S)Nc1ccccc1
inhibition [1]: 100% | IC50 [2]: 1240 nM

O=[N+]([O-])c1ccc2nc(-c3nc4ccc([N+](=O)[O-])cc4n3Cc3nnc(S)n3Cc3ccccc3)n(Cc3nnc(S)n3Cc3ccccc3)c2c1
inhibition [1]: 35.8%

NNC(=O)Cn1c(-c2nc3ccc([N+](=O)[O-])cc3n2CC(=O)NN)nc2ccc([N+](=O)[O-])cc21
inhibition [1]: 100% | IC50 [2]: 440 nM

O=[N+]([O-])c1ccc2nc(-c3nc4ccc([N+](=O)[O-])cc4n3Cc3nnc(Nc4ccccc4)s3)n(Cc3nnc(Nc4ccccc4)s3)c2c1
inhibition [1]: 89.1% | IC50 [2]: 5270 nM

NNC(=O)Cn1c(-c2nc3ccccc3n2CC(=O)NN)nc2ccccc21
inhibition [1]: 45.8%

O=C(Cn1c(-c2nc3ccccc3n2CC(=O)NNC(=S)NCc2ccccc2)nc2ccccc21)NNC(=S)NCc1ccccc1
inhibition [1]: 23.2%

C[C@H]1O[C@H](O[C@H]2[C@H](O)[C@@H](O)[C@@H](O[C@H]3[C@H](O)[C@@H](O)C(O)O[C@@H]3CO)O[C@@H]2CO)[C@H](O)[C@@H](O)[C@@H]1N[C@H]1C=C(CO)[C@@H](O)[C@H](O)[C@H]1O (stereo partly drawn) [ACARBOSE]
inhibition [1]: 83.3% | IC50 [2]: 13300 nM

O=C(Cn1c(-c2nc3ccccc3n2CC(=O)NNC(=S)Nc2ccccc2)nc2ccccc21)NNC(=S)Nc1ccccc1
inhibition [1]: 39.6%
